Molecular target: TRKA (Homo sapiens (Human), UniProt P04629)
Assay: Isolated TRK enzyme assay (HTRF KinEASE-TK), TRKA
Assay type: biochemical
Details: read-out: Trka enzyme (IC50)

Chain of TRKA (P04629 441-796): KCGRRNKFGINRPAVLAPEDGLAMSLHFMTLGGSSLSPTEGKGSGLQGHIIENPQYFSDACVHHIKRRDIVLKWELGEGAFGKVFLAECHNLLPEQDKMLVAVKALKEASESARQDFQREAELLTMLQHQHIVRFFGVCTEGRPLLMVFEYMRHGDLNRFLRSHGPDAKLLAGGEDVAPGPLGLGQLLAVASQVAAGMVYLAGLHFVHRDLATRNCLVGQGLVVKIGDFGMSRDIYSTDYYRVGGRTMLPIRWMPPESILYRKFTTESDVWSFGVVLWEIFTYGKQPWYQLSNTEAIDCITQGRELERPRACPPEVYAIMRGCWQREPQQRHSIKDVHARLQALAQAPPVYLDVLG

Row | IC50 [nM] | SMILES
1 | 4390 | CC(C)n1cc(C(=O)c2cncc(NC(=O)CN3CCc4cccnc4C3)c2)c2cncnc21 [Example 517, 2-(5,8-Dihydro-6H-[1,7]naphthyridin-7-yl)-N-[5-(7-isopropyl-7H-pyrrolo[2,3-d]pyrimidine-5-carbonyl)-pyridin-3-yl]-acetamide]
2 | 7.3 | CC(C)n1cc(C(=O)c2cncc(NC(=O)C(O)c3ccccc3)c2)c2cncnc21 (stereo not shown) [Example 518, 2-Hydroxy-N-[5-(7-isopropyl-7H-pyrrolo[2,3-d]pyrimidine-5-carbonyl)-pyridin-3-yl]-2-phenyl-acetamide]
3 | 47.9 | CCOc1ncc(C(=O)c2cn(C(C)C)c3ncncc23)cc1NC(=O)Cn1nc(C(F)(F)F)cc1C [Example 519, N-[2-Ethoxy-5-(7-isopropyl-7H-pyrrolo[2,3-d]pyrimidine-5-carbonyl)-pyridin-3-yl]-2-(5-methyl-3-trifluoromethyl-pyrazol-1-yl)-acetamide]
4 | 4.57 | CC(C)(C)n1cc(C(=O)c2cncc(NC(=O)Cc3ccc(C#N)cc3)c2)c2cnc(N)nc21 [Example 520, N-[5-(2-Amino-7-tert-butyl-7H-pyrrolo[2,3-d]pyrimidine-5-carbonyl)-pyridin-3-yl]-2-(4-cyano-phenyl)-acetamide]
5 | 92.7 | CC(C)n1cc(C(=O)c2cncc(NC(=O)C(CO)c3ccc(Cl)cc3)c2)c2cncnc21 (stereo not shown) [Example 521, 2-(4-Chloro-phenyl)-3-hydroxy-N-[5-(7-isopropyl-7H-pyrrolo[2,3-d]pyrimidine-5-carbonyl)-pyridin-3-yl]-propionamide]
6 | 43.7 | N#Cc1ccc(CC(=O)Nc2cncc(C(=O)c3cn(C4(CO)CC4)c4ncncc34)c2)cc1 [Example 522, 2-(4-Cyano-phenyl)-N-{5-[7-(1-hydroxymethyl-cyclopropyl)-7H-pyrrolo[2,3-d]pyrimidine-5-carbonyl]-pyridin-3-yl}-acetamide]
7 | 11.4 | O=C(Cc1ccc(Cl)cn1)Nc1cncc(C(=O)c2cn(C3(CO)CC3)c3ncncc23)c1 [Example 523, 2-(5-Chloro-pyridin-2-yl)-N-{5-[7-(1-hydroxymethyl-cyclopropyl)-7H-pyrrolo[2,3-d]pyrimidine-5-carbonyl]-pyridin-3-yl}-acetamide]
8 | 4.53 | O=C(Cc1ccc(C(F)(F)F)cc1)Nc1cncc(C(=O)c2cn(C3(CO)CC3)c3ncncc23)c1 [Example 524, N-{5-[7-(1-Hydroxymethyl-cyclopropyl)-7H-pyrrolo[2,3-d]pyrimidine-5-carbonyl]-pyridin-3-yl}-2-(4-trifluoromethyl-phenyl)-acetamide]
9 | 9.48 | O=C(Cn1ccc(C(F)(F)F)n1)Nc1cncc(C(=O)c2cn(C3(CO)CC3)c3ncncc23)c1 [Example 525, N-{5-[7-(1-Hydroxymethyl-cyclopropyl)-7H-pyrrolo[2,3-d]pyrimidine-5-carbonyl]-pyridin-3-yl}-2-(3-trifluoromethyl-pyrazol-1-yl)-acetamide]
10 | 1.51 | CC(C)n1cc(C(=O)c2cncc(NC(=O)Nc3cc(C4CC4)nn3-c3cnn(C)c3)c2)c2cncnc21 [Example 526, 1-(3-Cyclopropyl-1′-methyl-1′H-[1,4′]bipyrazolyl-5-yl)-3-[5-(7-isopropyl-7H-pyrrolo[2,3-d]pyrimidine-5-carbonyl)-pyridin-3-yl]-urea]
11 | 4.64 | CC(C)n1cc(C(=O)c2cncc(NC(=O)Nc3cc(C(C)(C)C)nn3-c3cnn(C)c3)c2)c2cncnc21 [Example 527, 1-(3-tert-Butyl-1′-methyl-1′H-[1,4′]bipyrazolyl-5-yl)-3-[5-(7-isopropyl-7H-pyrrolo[2,3-d]pyrimidine-5-carbonyl)-pyridin-3-yl]-urea]
12 | 2.25 | CC(C)(C)n1cc(C(=O)c2cncc(NC(=O)Cc3nc4ccccc4[nH]3)c2)c2cnc(N)nc21 [Example 528, N-[5-(2-Amino-7-tert-butyl-7H-pyrrolo[2,3-d]pyrimidine-5-carbonyl)-pyridin-3-yl]-2-(1H-benzoimidazol-2-yl)-acetamide]
13 | 3.93 | CC(C)(C)n1cc(C(=O)c2cncc(NC(=O)Cc3ccc(Br)cn3)c2)c2cnc(N)nc21 [Example 529, N-[5-(2-Amino-7-tert-butyl-7H-pyrrolo[2,3-d]pyrimidine-5-carbonyl)-pyridin-3-yl]-2-(5-bromo-pyridin-2-yl)-acetamide]
14 | 5.9 | CC(C)(C)n1cc(C(=O)c2cncc(NC(=O)Cc3ccc(C#N)cn3)c2)c2cnc(N)nc21 [Example 530, N-[5-(2-Amino-7-tert-butyl-7H-pyrrolo[2,3-d]pyrimidine-5-carbonyl)-pyridin-3-yl]-2-(5-cyano-pyridin-2-yl)-acetamide]
15 | 52.4 | C[C@@H](CO)n1cc(C(=O)c2cncc(NC(=O)Cc3ccc(OC(F)F)cc3)c2)c2cncnc21 [Example 531, 2-(4-Difluoromethoxy-phenyl)-N-{5-[7-((S)-2-hydroxy-1-methyl-ethyl)-7H-pyrrolo[2,3-d]pyrimidine-5-carbonyl]-pyridin-3-yl}-acetamide]
16 | 11.1 | C[C@@H](CO)n1cc(C(=O)c2cncc(NC(=O)Cn3cc4ccccc4n3)c2)c2cncnc21 [Example 532, N-{5-[7-((S)-2-Hydroxy-1-methyl-ethyl)-7H-pyrrolo[2,3-d]pyrimidine-5-carbonyl]-pyridin-3-yl}-2-indazol-2-yl-acetamide]

Row | IC50 [nM] | SMILES
17 | 31.3 | C[C@@H](CO)n1cc(C(=O)c2cncc(NC(=O)Cc3nc4ccccc4[nH]3)c2)c2cncnc21 [Example 533, 2-(1H-Benzoimidazol-2-yl)-N-{5-[7-((S)-2-hydroxy-1-methyl-ethyl)-7H-pyrrolo[2,3-d]pyrimidine-5-carbonyl]-pyridin-3-yl}-acetamide]
18 | 20.3 | C[C@@H](CO)n1cc(C(=O)c2cncc(NC(=O)Cc3ccc(OC(F)(F)F)cc3)c2)c2cncnc21 [Example 534, N-{5-[7-((S)-2-Hydroxy-1-methyl-ethyl)-7H-pyrrolo[2,3-d]pyrimidine-5-carbonyl]-pyridin-3-yl}-2-(4-trifluoromethoxy-phenyl)-acetamide]
19 | 51.2 | C[C@@H](CO)n1cc(C(=O)c2cncc(NC(=O)Cc3ccc(F)c(F)c3)c2)c2cncnc21 [Example 535, 2-(3,4-Difluoro-phenyl)-N-{5-[7-((S)-2-hydroxy-1-methyl-ethyl)-7H-pyrrolo[2,3-d]pyrimidine-5-carbonyl]-pyridin-3-yl}-acetamide]
20 | 1.57 | COCC(C)(C)n1cc(C(=O)c2cncc(NC(=O)Cc3ccc(Cl)cn3)c2)c2cncnc21 [Example 536, 2-(5-Chloro-pyridin-2-yl)-N-{5-[7-(2-methoxy-1,1-dimethyl-ethyl)-7H-pyrrolo[2,3-d]pyrimidine-5-carbonyl]-pyridin-3-yl}-acetamide]
21 | 10.6 | COCC(C)(C)n1cc(C(=O)c2cncc(NC(=O)Cc3ccc(F)cn3)c2)c2cncnc21 [Example 537, 2-(5-Fluoro-pyridin-2-yl)-N-{5-[7-(2-methoxy-1,1-dimethyl-ethyl)-7H-pyrrolo[2,3-d]pyrimidine-5-carbonyl]-pyridin-3-yl}-acetamide]
22 | 1.51 | COCC(C)(C)n1cc(C(=O)c2cncc(NC(=O)Cn3ccc(C4CC4)n3)c2)c2cncnc21 [Example 538, 2-(3-Cyclopropyl-pyrazol-1-yl)-N-{5-[7-(2-methoxy-1,1-dimethyl-ethyl)-7H-pyrrolo[2,3-d]pyrimidine-5-carbonyl]-pyridin-3-yl}-acetamide]
23 | 4.08 | COCC(C)(C)n1cc(C(=O)c2cncc(NC(=O)Cc3ccc(F)cc3)c2)c2cncnc21 [Example 539, 2-(4-Fluoro-phenyl)-N-{5-[7-(2-methoxy-1,1-dimethyl-ethyl)-7H-pyrrolo[2,3-d]pyrimidine-5-carbonyl]-pyridin-3-yl}-acetamide]
24 | 153 | CN(C(=O)Cc1ccc(F)cc1)c1cncc(C(=O)c2cn(C(C)(C)C)c3ncncc23)c1 [Example 540, N-[5-(7-tert-Butyl-7H-pyrrolo[2,3-d]pyrimidine-5-carbonyl)-pyridin-3-yl]-2-(4-fluoro-phenyl)-N-methyl-acetamide]
25 | 50 | CN(C(=O)Cc1ccc(Cl)cn1)c1cncc(C(=O)c2cn(C(C)(C)C)c3ncncc23)c1 [Example 543, N-[5-(7-tert-Butyl-7H-pyrrolo[2,3-d]pyrimidine-5-carbonyl)-pyridin-3-yl]-2-(5-chloro-pyridin-2-yl)-N-methyl-acetamide]
26 | 31.6 | CN(C(=O)Cc1ccc(Cl)cc1)c1cncc(C(=O)c2cn(C(C)(C)C)c3ncncc23)c1 [Example 544, N-[5-(7-tert-Butyl-7H-pyrrolo[2,3-d]pyrimidine-5-carbonyl)-pyridin-3-yl]-2-(4-chloro-phenyl)-N-methyl-acetamide]
27 | 2.95 | CC(C)(C)n1cc(C(=O)c2cncc(NC(=O)Cc3ccc(Cl)cc3)c2)c2cncnc21 [Example 545, N-[5-(7-tert-Butyl-7H-pyrrolo[2,3-d]pyrimidine-5-carbonyl)-pyridin-3-yl]-2-(4-chloro-phenyl)-acetamide]
28 | 5.34 | CC(C)(C)n1cc(C(=O)c2cncc(NC(=O)Cc3ccc(F)cc3)c2)c2cncnc21 [Example 546, N-[5-(7-tert-Butyl-7H-pyrrolo[2,3-d]pyrimidine-5-carbonyl)-pyridin-3-yl]-2-(4-fluoro-phenyl)-acetamide]
29 | 3.88 | COCC(C)(C)n1cc(C(=O)c2cncc(NC(=O)Cc3ccc(Cl)cn3)c2)c2cnc(N)nc21 [Example 547, N-{5-[2-Amino-7-(2-methoxy-1,1-dimethyl-ethyl)-7H-pyrrolo[2,3-d]pyrimidine-5-carbonyl]-pyridin-3-yl}-2-(5-chloro-pyridin-2-yl)-acetamide]
30 | 21.2 | COCC(C)(C)n1cc(C(=O)c2cncc(NC(=O)Cc3ccc(F)cn3)c2)c2cnc(N)nc21 [Example 548, N-{5-[2-Amino-7-(2-methoxy-1,1-dimethyl-ethyl)-7H-pyrrolo[2,3-d]pyrimidine-5-carbonyl]-pyridin-3-yl}-2-(5-fluoro-pyridin-2-yl)-acetamide]
31 | 3.22 | COCC(C)(C)n1cc(C(=O)c2cncc(NC(=O)Cn3ccc(C(F)(F)F)n3)c2)c2cnc(N)nc21 [Example 549, N-{5-[2-Amino-7-(2-methoxy-1,1-dimethyl-ethyl)-7H-pyrrolo[2,3-d]pyrimidine-5-carbonyl]-pyridin-3-yl}-2-(3-trifluoromethyl-pyrazol-1-yl)-acetamide]
